Test results: patent US10292998B1, “Compositions and methods for prevention and treatment of eye infections” (priority 2018, dated 2019)

What was measured:
[1] = tested on: bacteria on the surface of the eyeball; test: Bacterial count on the surface of the eyeball after eye drops of PVP-I/NAC combinations; format: in vivo, human; conditions: NAC alone
Source text: The combinations were then applied, with one or more drops of the composition, each between 7 and 30 microliters in total volume, applied by syringe to the eye of a patient over a period of between 30 and 180 seconds. […] In comparison, experiments using NAC alone was ineffective in lowering bacterial count.

[2] = tested on: bacterial and viral infections; test: Treatment and prevention of eye infections, summary of the experiments; format: in vivo, human
Source text: Experiments have determined that PVP-I can be mixed with N-acetylcysteine (NAC), preferably in combination with an aqueous solution such as saline or water for improved lubrication, to form a medical eye drop treatment, which has the unexpected result of greatly reducing the bacteria count while simultaneously maintaining the pain at a tolerable level, or in some cases reducing the pain to a non-perceptible level. The active treatment components are preferably mixed by stirring at room temperature (that is, roughly 15-25° C.) and added to an aqueous solution. The PVP-I concentration of the mixture can be as low as 1.25% by volume of the treatment composition without substantially reducing its effectiveness at preventing eye infections of bacterial, viral, and fungal varieties.
Experiments were performed with differing ratios of PVP-I, NAC, and aqueous solution in combination. The PVP-I percentage by volume was varied between 0.5% and 80%, and the NAC percentage by volume was varied between 0.5% and 10%. The combinations were then applied, with one or more drops of the composition, each between 7 and 30 microliters in total volume, applied by syringe to the eye of a patient over a period of between 30 and 180 seconds.
An average eye drop contains 35 microliters, but the space between the human eye and the eyelid can only contain, in an average adult human, approximately 7 microliters of liquid. A human instinctively blinks upon addition of an eye drop to the eye, thereby forcing out most of the eye drop. As a result, only a fraction of a first eye drop will remain in the eye to mix with a second eye drop. […] As a result, the composition described above is not achieved.

[3] = tested on: bacteria on the eye surface; conditions: 0.5%-0.7% PVP-I solution by volume dripped into the eye over 30 seconds, repeated every 90 seconds four times; cited from earlier work
viral conjunctivitis = conditions: cited from earlier work
[4] = cited from earlier work

Compound	lowering bacterial count [1]	treating or preventing infections ([2]; NAC without PVP-I)	discomfort ([2]; summary of experiments)	treating and preventing bacterial infections ([2]; summary of experiments)	treating viral infections ([2]; summary of experiments)	reduction of bacteria on the eye surface [3]	treating pre-existing infections, especially viral infections such as viral conjunctivitis (viral conjunctivitis; PVP-I without NAC)	effect on viral conjunctivitis infections (viral conjunctivitis; solution of 1.25% PVP-I by volume without NAC, previous study)	tolerability on the eye ([4]; 1.25% or 2.5% PVP-I concentrations)	pain during application ([4]; 10% PVP-I concentration by volume, surface of the eye)	pain on application to the human eye ([4]; PVP-I especially at concentrations greater than 2.5% by volume)
CC(=O)N[C@@H](CS)C(=O)O [NAC, N-acetylcysteine]	ineffective	ineffective									
Povidone-iodine [PVP-I]			highly uncomfortable	effective	ineffective	99.9%	largely ineffective	no significant effect	tolerable but still highly irritating	intolerable	extreme immediate pain and a continuing burning sensation
